From PubChem BioAssay (NCI) come the findings set out here.

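Results reflect a 48-hour exposure of cells in 96-well plates to compound at five concentrations. GI50: concentration for 50% inhibition of growth. TGI: concentration producing complete growth inhibition.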

Among the test systems are SW-620 colon; MALME-3M melanoma; SK-MEL-5 melanoma; U251 CNS; 786-0 renal; SNB-75 CNS; NCI/ADR-RES ovarian; HS 578T breast; DU-145 prostate; MCF7 breast.
Holding throughout (assay): DTP human tumour cell line panel, 48 h

For orientation: TGI means the concentration at which net growth stops. Low readings indicate more potent growth arrest, high ones less potent growth arrest. Regarding `O=C1c2ccccc2C(=O)N1C/C=N/NS(=O)(=O)c1cccc([N+](=O)[O-])c1`, the TGI in the test on SW-620 colon, with MALME-3M melanoma, with SK-MEL-5 melanoma, with U251 CNS, with 786-0 renal and in the test with SNB-75 CNS was greater than 100 µM in each case.
As for `CN(c1ccccc1)c1nc(=[N+](C)C)ss1`, the concentration for total growth inhibition (TGI) in the test on SW-620 colon, with MALME-3M melanoma, with SK-MEL-5 melanoma, in the test on U251 CNS, in the test with 786-0 renal and with SNB-75 CNS was greater than 100 µM in each case.
The GI50 is the concentration at which growth is held to half of that of the control. In the case of `O=c1c2ccccc2c(=O)n2n1-c1cccc(c1)CSSCc1cccc-2c1`, the GI50 in the test on SW-620 colon, in the test on MALME-3M melanoma and in the test with SK-MEL-5 melanoma was greater than 100 µM throughout. For the same compound, the TGI with SW-620 colon, in the test on MALME-3M melanoma, with SK-MEL-5 melanoma, in the test on U251 CNS and in the test with 786-0 renal was greater than 100 µM each time.
Take `CCC(=O)N1C(=S)SC[C@H]1C(=O)OC`: the TGI with SW-620 colon, in the test with MALME-3M melanoma, with SK-MEL-5 melanoma, in the test with U251 CNS, in the test with 786-0 renal and with SNB-75 CNS was greater than 100 µM in each case.
For the compound `CCN(CC)CCN1C(=O)C2C3C(C)=CC(OC(C)=O)(CC3C)C2C1=O` (stereo not given), the GI50 was greater than 100 µM in the test with SW-620 colon; greater than 100 µM in the test on MALME-3M melanoma; greater than 100 µM in the test with SK-MEL-5 melanoma; greater than 100 µM with NCI/ADR-RES ovarian; greater than 100 µM in the test on U251 CNS; 75.3 µM in the test on HS 578T breast. Also, the GI50 in the test on 786-0 renal, with SNB-75 CNS and with DU-145 prostate was greater than 100 µM each time. In addition, the concentration for total growth inhibition (TGI) with SW-620 colon, in the test with MALME-3M melanoma, with SK-MEL-5 melanoma, in the test on NCI/ADR-RES ovarian, in the test on U251 CNS and in the test on HS 578T breast was greater than 100 µM throughout. Moreover, the TGI in the test with 786-0 renal, with SNB-75 CNS and in the test on DU-145 prostate was greater than 100 µM in each case.
With `O=[N+]([O-])c1ccc(Cl)c(C2CC(c3cccc4ccccc34)=Nc3ccccc3S2=O)c1` (stereo not given), the total growth inhibition concentration (TGI) with SW-620 colon is 33.5 µM; with MALME-3M melanoma, 42.5 µM; in the test on SK-MEL-5 melanoma it was 40 µM; in the test with U251 CNS it was 20.2 µM; with 786-0 renal it was 28.5 µM; in the test on SNB-75 CNS, greater than 100 µM.
For the compound `CC[O-].CC[O-].[O-]c1ccccc1C=NC12CC3CC(CC(C3)C1)C2.[O-]c1ccccc1C=NC12CC3CC(CC(C3)C1)C2.[Ti+4]`, the GI50 was greater than 100 µM with SW-620 colon; 64.2 µM with MALME-3M melanoma; 19.9 µM in the test on SK-MEL-5 melanoma; greater than 100 µM in the test with U251 CNS; greater than 100 µM in the test on 786-0 renal. The TGI in the test on SW-620 colon, in the test on MALME-3M melanoma, in the test with SK-MEL-5 melanoma, in the test on U251 CNS and in the test on 786-0 renal was greater than 100 µM throughout.
Consider `CN(N=O)C(=O)NC(CCCCNC(=O)OCc1ccccc1)C(=O)OCc1ccccc1` (stereo not given), for which the total growth inhibition concentration (TGI) in the test on SW-620 colon is greater than 100 µM; with MALME-3M melanoma, 89.6 µM; in the test on SK-MEL-5 melanoma, 45.4 µM; in the test on U251 CNS, greater than 100 µM; in the test with 786-0 renal, 33.6 µM; with SNB-75 CNS, 36 µM.
With `CCN(CC)CC(C(=O)Nc1c(C)cccc1C)/C(C)=N\NC(=S)NN` (stereo not given), the TGI in the test on SW-620 colon, in the test with MALME-3M melanoma, with SK-MEL-5 melanoma, with U251 CNS, in the test on 786-0 renal and with SNB-75 CNS was greater than 100 µM in each case.
As to `Cc1cc(C)c2c(c1)CSCc1cc(C)cc(C)c1-2`, the TGI was greater than 100 µM in the test on SW-620 colon; 56.8 µM in the test with MALME-3M melanoma; 65 µM in the test with SK-MEL-5 melanoma; 40.5 µM in the test on U251 CNS; greater than 100 µM in the test on 786-0 renal; greater than 100 µM with SNB-75 CNS.
Turning to `Cc1cc[c]([Sb]2[O]C(CO)C(C(O)C(O)C(=O)O)[O]2)cc1` (stereo not given), the GI50 was greater than 100 µM in the test with SW-620 colon; greater than 100 µM with MALME-3M melanoma; greater than 100 µM with SK-MEL-5 melanoma; greater than 100 µM with NCI/ADR-RES ovarian; 29.1 µM with U251 CNS; 87.7 µM with HS 578T breast. Also, the figures for the GI50 in the test on 786-0 renal, in the test with SNB-75 CNS and in the test on DU-145 prostate were 38.4 µM, 23 µM and 38.5 µM, respectively. The total growth inhibition concentration (TGI) in the test with SW-620 colon, with MALME-3M melanoma, in the test with SK-MEL-5 melanoma, in the test with NCI/ADR-RES ovarian, in the test with U251 CNS and with HS 578T breast was greater than 100 µM in each case. For the same compound, the TGI in the test on 786-0 renal is greater than 100 µM; with SNB-75 CNS, 76.8 µM; in the test on DU-145 prostate, greater than 100 µM.
Regarding `[O-]c1ccccc1C=NCCN=Cc1ccccc1[O-].[O]=[U+2]=[O]`, the GI50 in the test with SW-620 colon is greater than 100 µM; in the test on MALME-3M melanoma, 39.7 µM; with SK-MEL-5 melanoma, 41.7 µM; with U251 CNS it was 19.3 µM; in the test with 786-0 renal, 18.6 µM; in the test on SNB-75 CNS it was 22.9 µM. Besides, the TGI with SW-620 colon is greater than 100 µM; with MALME-3M melanoma, greater than 63.5 µM; with SK-MEL-5 melanoma, greater than 81.8 µM; with U251 CNS it was 39.1 µM; with 786-0 renal, 39.2 µM; with SNB-75 CNS, 70.2 µM.
On to `CCOc1ccc2c(c1)[n+]([O-])c(C(N)=O)c(N)[n+]2[O-]`, for which the total growth inhibition concentration (TGI) in the test on SW-620 colon, with MALME-3M melanoma, in the test on SK-MEL-5 melanoma, in the test on U251 CNS, in the test on 786-0 renal and with SNB-75 CNS was greater than 100 µM each time.
For the compound `CCN(CC)C(=O)c1cccc2c(OC)ccc(OC)c12`, the concentration for total growth inhibition (TGI) in the test on SW-620 colon, in the test with MALME-3M melanoma, with SK-MEL-5 melanoma, with U251 CNS, with 786-0 renal and in the test with SNB-75 CNS was greater than 100 µM each time.
Regarding `CC1=NC2(C(=O)O)C3(C(=O)O)N=C(C)OC3(C(F)(F)F)C2(C(F)(F)F)O1` (stereo not given), the TGI in the test with SW-620 colon, with MALME-3M melanoma, in the test on U251 CNS, in the test on 786-0 renal and with SNB-75 CNS was greater than 100 µM throughout.
In the case of `Clc1ccc2c(NC3CCC(NC4CCCCC4)CC3)ccnc2c1` (stereo not given), the GI50 in the test with SW-620 colon was 1.92 µM; in the test with MALME-3M melanoma it was 2.43 µM; in the test with SK-MEL-5 melanoma, 1.77 µM; with NCI/ADR-RES ovarian, 8.48 µM; with U251 CNS, 3.6 µM; in the test on MCF7 breast, 2.49 µM. Further, the GI50 is 11.9 µM in the test on 786-0 renal, 4.63 µM in the test on SNB-75 CNS and 13.3 µM with DU-145 prostate. In addition, the concentration for total growth inhibition (TGI) in the test on SW-620 colon was found to be 4.19 µM; in the test with MALME-3M melanoma, 5.1 µM; with SK-MEL-5 melanoma, 3.2 µM; in the test with NCI/ADR-RES ovarian, 30.4 µM; in the test with U251 CNS, 13.3 µM; with MCF7 breast, 11 µM. The TGI is 24.5 µM in the test with 786-0 renal, 19.4 µM in the test on SNB-75 CNS and 33.6 µM in the test on DU-145 prostate.
As for `O=C1C2C3SC(c4cc5ccccc5cc43)C2C(=O)N1c1ccccc1` (stereo not given), the concentration for total growth inhibition (TGI) in the test with SW-620 colon was greater than 100 µM; in the test on MALME-3M melanoma, greater than 100 µM; in the test with SK-MEL-5 melanoma it was greater than 100 µM; with U251 CNS, greater than 100 µM; in the test on 786-0 renal, greater than 100 µM; in the test with SNB-75 CNS, 45.4 µM.
In the case of `NCCNCCNCc1c2ccccc2c(CNCCNCCN)c2ccccc12`, the TGI with SW-620 colon, in the test with MALME-3M melanoma, in the test with SK-MEL-5 melanoma, in the test with U251 CNS and with 786-0 renal was greater than 100 µM in each case.
With `CCOc1ccc2c(c1)[n+]([O-])c(-c1ccccc1)c(N)[n+]2[O-]`, the TGI was greater than 100 µM with SW-620 colon; greater than 100 µM in the test with MALME-3M melanoma; 51.5 µM in the test with SK-MEL-5 melanoma; greater than 100 µM in the test on U251 CNS; greater than 100 µM with 786-0 renal; greater than 100 µM in the test with SNB-75 CNS.
Regarding `O=S1(=O)[C@H](c2ccccc2)c2c(-c3ccccc3)sc(-c3ccccc3)c2[C@@H]1c1ccccc1`, the concentration for total growth inhibition (TGI) with SW-620 colon, with MALME-3M melanoma, in the test with SK-MEL-5 melanoma, in the test on U251 CNS, in the test on 786-0 renal and with SNB-75 CNS was greater than 100 µM throughout.
As to `O=C(O)c1ccccc1NS(=O)(=O)c1ccc(Cl)cc1`, the TGI in the test on SW-620 colon, in the test on MALME-3M melanoma, with SK-MEL-5 melanoma, with U251 CNS, in the test with 786-0 renal and in the test with SNB-75 CNS was greater than 100 µM each time.
For `CCOP(=O)(OCC)C(C(=O)OC)C(=O)C(=O)Nc1cccc([N+](=O)[O-])c1` (stereo not given), the TGI in the test with SW-620 colon, in the test with MALME-3M melanoma, in the test with SK-MEL-5 melanoma, in the test with U251 CNS, in the test on 786-0 renal and in the test on SNB-75 CNS was greater than 100 µM in each case.
On to `CC1COS(=O)N1c1ccccc1` (stereo not given), for which the TGI in the test on SW-620 colon, with MALME-3M melanoma, in the test on SK-MEL-5 melanoma, in the test with U251 CNS, in the test with 786-0 renal and in the test on SNB-75 CNS was greater than 100 µM throughout.
`O=C1CN=C(c2ccccc2)c2ccncc2N1`: the TGI in the test with SW-620 colon, in the test with MALME-3M melanoma, in the test on SK-MEL-5 melanoma, with U251 CNS, with 786-0 renal and in the test on SNB-75 CNS was greater than 100 µM in each case.
